Columns and labels:
Assay type in all cases: cell-based
Phoma betae = assay: Antifungal activity in three media differing in ionic strength (Table 3); conditions: 72 hours
Experimental: (§1) The antifungal activity of the G9R and V39R Rs-AFP2 isoforms was also assessed on a set of seven different phytopathogenic fungi in three media differing in ionic strength: SMF−, SMF plus 1 mM CaCl2 and 50 mM KCl, and SMF plus 5 mM CaCl2 and 50 mM KCl. The fungi tested were: Alternaria brassicicola, Ascochyta pisi, Botrytis cinerea, Fusarium culmorum, Nectria haematococca, Phoma betae and Verticillium dahliae.

Fusarium culmorum = assay: as above
Experimental: as §1

Alternaria brassicicola = assay: as above
Experimental: as §1

Verticillium dahliae = assay: as above
Experimental: as §1

Ascochyta pisi = assay: as above
Experimental: as §1

Nectria haematococca = assay: as above
Experimental: as §1

Botrytis cinerea = assay: as above
Experimental: as §1

F culmorum [1] = assay: Specific antifungal activity of Rs-AFP2 isoforms in SMF− and SMF+ media; parameters: IC50 SMF− / IC50 SMF+: unit not given here
Experimental: For each isoform, two independent purifications were carried out and the antifungal activity was determined in duplicate using F culmorum as a test fungus in two different media: a low ionic strength medium called SMF-(Terras et al, 1992, J Biol Chem, 267:15301-15309) and the same medium supplemented with 1 mM CaCl2 and 50 mM KCl called SMF+. The presence of salts in the test medium, especially salts with divalent cations, reduces the specific activity of Rs-AFP2. Seed-purified as well as yeast-expressed wild type Rs-AFP2 served as a control in the assays.
The relative specific activity is expressed as the specific activity of the mutant divided by the specific activity of yRs-AFP2 and multiplied by 100. […] The specific activity was measured in medium SMF−and SMF+.
Deviations are given as standard error of the mean (sem) based on the triplicate experiments. In SMF−, the medium without added salts, most of the derivatives show no decrease or only a minor decrease in antifungal activity, while in SMF+, the medium with added salts, there is a significant decrease in antifungal activity for several Rs-AFP2 isoforms.

F culmorum [2] = assay: Growth inhibition in SMF with varying CaCl2 or KCl (FIG. 7)
Experimental: Their antifungal activity was determined in SMF with increasing Ca^2+ or K^+ concentration and compared with that of plant-derivable wild type Rs-AFP2 (isolated from seed) as well as yeast purified Rs-AFP2. FIG. 7 is a graph of the percentage growth inhibition of F culmorum caused by 10 μg/ml of yeast-purified Rs-AFP2 (SEQ ID NO: 20) (open circles), seed-purified Rs-AFP2 (SEQ ID NO: 77) (closed circles), Rs-AFP2/G9R (SEQ ID NO: 38) (squares) and Rs-AFP2/V39R (SEQ ID NO: 43) (triangles) in a medium consisting of SMF with varying concentrations of CaCl2 (panel A) and KCl (panel B).

[3] = SMF plus 1 mM CaCl2 and 50 mM KCl

yRs-AFP2/G9R: yeast-expressed Rs-AFP2 isoform, position 9 glycine to arginine (QKLCQRPSRTWSGVCGNNNACKNQCIRLEKARHGSCNYVFPAHKCICYFPC; listed as Raphanus sativus)
IC50 VALUES, P betae, SMF + 1 mM CaCl2/50 mM KCl (Phoma betae): 2.50 µg/mL | IC50 VALUES, P betae, SMF + 5 mM CaCl2/50 mM KCl (Phoma betae): >100 µg/mL | IC50 VALUES, P betae, SMF (Phoma betae; SMF−): 2.0 µg/mL | IC50 VALUES, F culmorum, SMF + 1 mM CaCl2/50 mM KCl (Fusarium culmorum; 96 hours): 1.5 µg/mL | IC50 VALUES, F culmorum, SMF + 5 mM CaCl2/50 mM KCl (Fusarium culmorum; 96 hours): 7.2 µg/mL | fold activity relative to Rs-AFP2 against F culmorum (Fusarium culmorum; [3]): approximately three-fold more active | IC50 VALUES, F culmorum, SMF (Fusarium culmorum; SMF−, 96 hours): 2.2 µg/mL | IC50 VALUES, A brassicicola, SMF + 1 mM CaCl2/50 mM KCl (Alternaria brassicicola; 72 hours): >50 µg/mL | IC50 VALUES, A brassicicola, SMF + 5 mM CaCl2/50 mM KCl (Alternaria brassicicola; 72 hours): >100 µg/mL | IC50 VALUES, A brassicicola, SMF (Alternaria brassicicola; SMF−, 72 hours): 2.6 µg/mL | activity against A brassicola compared with Rs-AFP2, in words (Alternaria brassicicola; Table 3 data): comparable to the activity of Rs-AFP2 | IC50 VALUES, V dahliae, SMF + 1 mM CaCl2/50 mM KCl (Verticillium dahliae; 96 hours): 4.0 µg/mL | IC50 VALUES, V dahliae, SMF + 5 mM CaCl2/50 mM KCl (Verticillium dahliae; 96 hours): 17.0 µg/mL | fold activity relative to Rs-AFP2 against V dahliae (Verticillium dahliae; [3]): approximately three-fold more active | IC50 VALUES, V dahliae, SMF (Verticillium dahliae; SMF−, 96 hours): 0.5 µg/mL | IC50 VALUES, A pisi, SMF + 1 mM CaCl2/50 mM KCl (Ascochyta pisi; 72 hours): >50 µg/mL | IC50 VALUES, A pisi, SMF + 5 mM CaCl2/50 mM KCl (Ascochyta pisi; 72 hours): >100 µg/mL | IC50 VALUES, A pisi, SMF (Ascochyta pisi; SMF−, 72 hours): 1.6 µg/mL | activity against A pisi compared with Rs-AFP2, in words (Ascochyta pisi; Table 3 data): comparable to the activity of Rs-AFP2 | IC50 VALUES, N haematococca, SMF + 1 mM CaCl2/50 mM KCl (Nectria haematococca; 72 hours): 16.0 µg/mL | IC50 VALUES, N haematococca, SMF + 5 mM CaCl2/50 mM KCl (Nectria haematococca; 72 hours): 100 µg/mL | fold activity relative to Rs-AFP2 against N haematococca (Nectria haematococca; [3]): approximately three-fold more active | IC50 VALUES, N haematococca, SMF (Nectria haematococca; SMF−, 72 hours): 2.0 µg/mL | IC50 VALUES, B cinerea, SMF + 1 mM CaCl2/50 mM KCl (Botrytis cinerea; 72 hours): >50 µg/mL | IC50 VALUES, B cinerea, SMF + 5 mM CaCl2/50 mM KCl (Botrytis cinerea; 72 hours): >100 µg/mL | IC50 VALUES, B cinerea, SMF (Botrytis cinerea; SMF−, 72 hours): 1.9 µg/mL | activity against B cinerea compared with Rs-AFP2, in words (Botrytis cinerea; Table 3 data): comparable to the activity of Rs-AFP2 | RELATIVE SPECIFIC ACTIVITY (%) IN MEDIUM SMF+ (F culmorum [1]; 1/IC50 of mutant divided by that of yRs-AFP2 x 100, 48 hour incubation, SMF with 1 mM CaCl2 and 50 mM KCl, preliminary tests): 285% | RELATIVE SPECIFIC ACTIVITY (%) IN MEDIUM SMF− (F culmorum [1]; 1/IC50 of mutant divided by that of yRs-AFP2 x 100, 48 hour incubation, low ionic strength medium, preliminary tests): 116% | IC50 SMF+ (F culmorum [1]; 72 hours growth, high salt medium (1 mM CaCl2, 50 mM KCl), triplicate): 3.3 | IC50 SMF− (F culmorum [1]; 72 hours growth, low salt medium, triplicate): 3.0 | antifungal activity in SMF+ relative to wild-type Rs-AFP2 (F culmorum [1]; SMF+): approximately two-fold higher | antifungal activity compared with yRs-AFP2 in high salt (SMF+), in words (F culmorum [1]; Table 1 tests): approximately three times more active than yRs-AFP2 | antifungal activity compared with yRs-AFP2 in low salt (SMF−), in words (F culmorum [1]; Table 1 tests): not so significantly different in low salt | effect of substitution on antifungal activity in SMF+, in words (F culmorum [1]; Table 2 tests, high salt medium): increased antifungal activity | effect of substitution on antifungal activity in SMF−, in words (F culmorum [1]; Table 2 tests, low salt medium): little effect on the antifungal activity | relative specific antifungal activity (1/IC50), FIG. 6, in words (F culmorum [1]; medium SMF+, Rs-AFP2 set at 100): particularly active | reduction of antifungal activity by cations, compared with wild-type Rs-AFP2 (F culmorum [2]; FIG. 7): less reduced by the presence of cations | activity in the presence of 100 mM KCl (F culmorum [2]; SMF with 100 mM KCl, FIG. 7, 10 μg/ml): fully inhibitory | growth inhibition in the presence of 5mM CaCl2 (F culmorum [2]; protein 10 μg/ml, SMF with 5mM CaCl2): complete inhibition
